Laboratory results reported in patent US7473688B2, “Indolobenzazepine HCV NS5B inhibitors” (Bristol-Myers Squibb Company, priority 2005, dated 2009).
Like-named read-outs stand apart in the source and are kept apart here.

Assays:
HCV replicon = HCV replicon FRET assay; format: cell-based; conditions: Hepatitis C virus, FRET assay, read-out: EC50*
How it was run: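 HCV replicon cells, with or without Renilla luciferase reporter, incubated with titrated compounds at 37 °C; Alamar blue read for cytotoxicity. NS3 protease activity read from lysates with 20 μM EDANS/DABCYL FRET peptide (340/490 nm, kinetic), or by Dual-Glo luciferase. Background from highest protease-inhibitor wells; EC50 = 50% signal reduction.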

HCV NS5B = biological target: T1, HCV NS5B (Hepatitis C virus genotype 1b, UniProt Q9WMX2); test: HCV NS5B RdRp enzyme assay (preincubation protocol); format: biochemical
T1 construct: The protein was expressed with an 18 amino acid C-terminal truncation to enhance the solubility; made in house; host or cells: E. coli BL21 (DE3), pET21a
T1 sequence (Q9WMX2 2420-2992): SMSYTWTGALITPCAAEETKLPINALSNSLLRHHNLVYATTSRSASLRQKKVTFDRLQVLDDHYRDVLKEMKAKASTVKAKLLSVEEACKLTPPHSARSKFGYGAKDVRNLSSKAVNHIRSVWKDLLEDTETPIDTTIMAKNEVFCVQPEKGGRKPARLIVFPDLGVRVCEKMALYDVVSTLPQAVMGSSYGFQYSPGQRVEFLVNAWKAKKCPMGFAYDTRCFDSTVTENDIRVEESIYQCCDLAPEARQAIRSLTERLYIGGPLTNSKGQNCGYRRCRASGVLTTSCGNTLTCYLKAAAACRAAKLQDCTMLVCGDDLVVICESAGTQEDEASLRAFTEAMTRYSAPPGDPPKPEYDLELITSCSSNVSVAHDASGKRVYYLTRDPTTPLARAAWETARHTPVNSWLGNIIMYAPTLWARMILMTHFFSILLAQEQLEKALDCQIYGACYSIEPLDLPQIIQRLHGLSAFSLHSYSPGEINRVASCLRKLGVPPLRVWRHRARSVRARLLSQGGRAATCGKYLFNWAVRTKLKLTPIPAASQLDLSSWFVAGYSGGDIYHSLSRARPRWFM
How it was run: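 Preincubation format: enzyme (14 nM, genotype 1b, 18-residue C-terminal truncation) meets diluted compound first; reaction started with bead-bound biotinylated dT12 primer, polyA template 0.2 nM and 0.29 μM 3H-UTP. Run 4 h, 30 °C in Hepes pH 7.5; scintillation proximity signal; IC50 fitted from seven inhibitor levels.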

SMILES	EC50 (HCV replicon; Table 1b)	IC50 (HCV NS5B; Table 1b, read-out: IC50*)	EC50 (HCV replicon; Table 1)	IC50 (HCV NS5B; Table 1, read-out: IC50*)
COc1ccc2c(c1)C=C(C(=O)N(C)[C@H](C(=O)N(C)C)C(C)C)Cn1c-2c(C2CCCCC2)c2ccc(C(=O)NS(=O)(=O)N(C)C)cc21	0.03 to 1 µM	< 0.02 µM		
COc1ccc2c(c1)C=C(C(=O)N(C)[C@H](C(=O)N1CCOCC1)C(C)C)Cn1c-2c(C2CCCCC2)c2ccc(C(=O)NS(=O)(=O)N(C)C)cc21	0.03 to 1 µM	0.02 to 1 µM		
COc1ccc2c(c1)C=C(C(=O)N(C)Cc1ccco1)Cn1c-2c(C2CCCCC2)c2ccc(C(=O)NS(=O)(=O)N(C)C)cc21	0.03 to 1 µM	< 0.02 µM		
COc1ccc2c(c1)C=C(C(=O)N(C)Cc1nccs1)Cn1c-2c(C2CCCCC2)c2ccc(C(=O)NS(=O)(=O)N(C)C)cc21	0.03 to 1 µM	< 0.02 µM		
COc1ccc2c(c1)C=C(C(=O)N(CC(=O)N(C)C)CC(=O)N(C)C)Cn1c-2c(C2CCCCC2)c2ccc(C(=O)NS(=O)(=O)N(C)C)cc21	0.03 to 1 µM	< 0.02 µM		
COc1ccc2c(c1)C=C(C(=O)N(C)[C@H](C)C(=O)O)Cn1c-2c(C2CCCCC2)c2ccc(C(=O)NS(=O)(=O)N(C)C)cc21	0.03 to 1 µM	0.02 to 1 µM		
COC(=O)c1ccc2c(C3CCCCC3)c3n(c2c1)CC(C(=O)N1CCOC(CO)C1)=Cc1c(OC)cccc1-3 (centres unmarked)	> 10 µM	> 12.5 µM		
COc1cccc2c1C=C(C(=O)N1CCOC(CO)C1)Cn1c-2c(C2CCCCC2)c2ccc(C(=O)O)cc21 (centres unmarked)	0.03 to 1 µM	0.02 to 1 µM		
COC(=O)c1ccc2c(C3CCCCC3)c3n(c2c1)CC(C(=O)N1C[C@@H](C)N[C@@H](C)C1)=Cc1c(OC)cccc1-3	> 0.37 µM	0.02 to 1 µM		
COc1cccc2c1C=C(C(=O)N1C[C@@H](C)N[C@@H](C)C1)Cn1c-2c(C2CCCCC2)c2ccc(C(=O)O)cc21	0.03 to 1 µM	0.02 to 1 µM		
CN(C)C(=O)CN(C)C(=O)C1=Cc2ccccc2-c2c(C3CCCCC3)c3ccc(C(=O)Nc4ccccn4)cc3n2C1	1 to 10 µM	0.02 to 1 µM		
COc1ccc2c(c1)C=C(C(=O)N(C)CC(=O)N(C)C)Cn1c-2c(C2CCCCC2)c2ccc(C(=O)N(C)CC(=O)N(C)C)cc21	1 to 10 µM	0.02 to 1 µM		
COc1ccc2c(c1)C=C(C(=O)N1CC(NC(=O)OC(C)(C)C)C1)Cn1c-2c(C2CCCCC2)c2ccc(C(=O)NS(=O)(=O)N(C)C)cc21	0.03 to 1 µM	0.02 to 1 µM		
COc1ccc2c(c1)C=C(C(=O)N1CCN(CCO)CC1)Cn1c-2c(C2CCCCC2)c2ccc(C(=O)NS(=O)(=O)N(C)C)cc21	0.03 to 1 µM	0.02 to 1 µM		
COc1ccc2c(c1)C=C(C(=O)N1CCC(CO)CC1)Cn1c-2c(C2CCCCC2)c2ccc(C(=O)NS(=O)(=O)N(C)C)cc21	0.03 to 1 µM	0.02 to 1 µM		
COc1ccc2c(c1)C=C(C(=O)N1CC(O)C1)Cn1c-2c(C2CCCCC2)c2ccc(C(=O)NS(=O)(=O)N(C)C)cc21	0.03 to 1 µM	0.02 to 1 µM		
COc1ccc2c(c1)C=C(C(=O)N1CC(OP(=O)(O)O)C1)Cn1c-2c(C2CCCCC2)c2ccc(C(=O)NS(=O)(=O)N(C)C)cc21	1 to 10 µM	0.02 to 1 µM		
COc1ccc2c(c1)C=C(C(=O)N1CC(OP(=O)(OC(C)(C)C)OC(C)(C)C)C1)Cn1c-2c(C2CCCCC2)c2ccc(C(=O)NS(=O)(=O)N(C)C)cc21	0.03 to 1 µM	0.02 to 1 µM		
COc1ccc2c(c1)C=C(C(=O)N1CC(N)C1)Cn1c-2c(C2CCCCC2)c2ccc(C(=O)NS(=O)(=O)N(C)C)cc21	0.03 to 1 µM	0.02 to 1 µM		
COc1ccc2c(c1)CC(C(=O)N1CCN(CCO)CC1)Cn1c-2c(C2CCCCC2)c2ccc(C(=O)NS(=O)(=O)N(C)C)cc21 (centres unmarked)	0.03 to 1 µM	0.02 to 1 µM		
COc1ccc2c(c1)CC(C(=O)N1CCC(CO)CC1)Cn1c-2c(C2CCCCC2)c2ccc(C(=O)NS(=O)(=O)N(C)C)cc21 (centres unmarked)	0.03 to 1 µM	0.02 to 1 µM		
COc1ccc2c(c1)C=C(C(=O)N1CC(CO)C1)Cn1c-2c(C2CCCCC2)c2ccc(C(=O)NS(=O)(=O)N(C)C)cc21	0.03 to 1 µM	0.02 to 1 µM		
COc1ccc2c(c1)C=C(C(=O)N1C[C@@H](C)N(CC3CC3)[C@@H](C)C1)Cn1c-2c(C2CCCCC2)c2ccc(C(=O)NS(=O)(=O)N(C)C)cc21	0.03 to 1 µM	0.02 to 1 µM		
COc1ccc2c(c1)C[C@H](NC(=O)N(C)CC(=O)N(C)C)Cn1c-2c(C2CCCCC2)c2ccc(C(=O)NS(=O)(=O)N(C)C)cc21	0.03 to 1 µM	0.02 to 1 µM		
COc1ccc2c(c1)C[C@@H](NC(=O)N(C)CC(=O)N(C)C)Cn1c-2c(C2CCCCC2)c2ccc(C(=O)NS(=O)(=O)N(C)C)cc21	0.03 to 1 µM	0.02 to 1 µM		
COc1ccc2c(c1)CC(C(=O)N1CC(CO)C1)Cn1c-2c(C2CCCCC2)c2ccc(C(=O)NS(=O)(=O)N(C)C)cc21 (centres unmarked)	0.03 to 1 µM	0.02 to 1 µM		

SMILES	EC50 (HCV replicon; Table 1b)	IC50 (HCV NS5B; Table 1b, read-out: IC50*)	EC50 (HCV replicon; Table 1)	IC50 (HCV NS5B; Table 1, read-out: IC50*)
COc1ccc2c(c1)C=C(C(=O)N1CC(N(C)C)C1)Cn1c-2c(C2CCCCC2)c2ccc(C(=O)NS(=O)(=O)N(C)C)cc21	0.03 to 1 µM	0.02 to 1 µM		
COc1ccc2c(c1)C=C(C(=O)N(C)Cc1ccccn1)Cn1c-2c(C2CCCCC2)c2ccc(C(=O)NS(=O)(=O)N(C)C)cc21	0.03 to 1 µM	0.02 to 1 µM		
COc1ccc2c(c1)C=C(C(=O)N1CCN(CCOCCO)CC1)Cn1c-2c(C2CCCCC2)c2ccc(C(=O)NS(=O)(=O)N(C)C)cc21	0.03 to 1 µM	0.02 to 1 µM		
COc1ccc2c(c1)CC(C(=O)N1CC(N(C)C)C1)Cn1c-2c(C2CCCCC2)c2ccc(C(=O)NS(=O)(=O)N(C)C)cc21 (centres unmarked)	0.03 to 1 µM	0.02 to 1 µM		
COc1ccc2c(c1)C=C(C(=O)O)Cn1c-2c(C2CCCCC2)c2ccc(C(=O)NS(=O)(=O)N3CCN(C(C)=O)CC3)cc21	> 10 µM	0.02 to 1 µM		
COc1ccc2c(c1)C=C(C(=O)N[C@@H]1C3CCC(C)([C@@H]1O)C3(C)C)Cn1c-2c(C2CCCCC2)c2ccc(C(=O)NS(=O)(=O)N(C)C)cc21 (some centres unmarked)	0.03 to 1 µM	0.02 to 1 µM		
COc1ccc2c(c1)C=C(C(=O)N1CCN(c3ccccn3)CC1)Cn1c-2c(C2CCCCC2)c2ccc(C(=O)NS(=O)(=O)N(C)C)cc21	0.03 to 1 µM	0.02 to 1 µM		
COc1ccc2c(c1)C=C(C(=O)N1CCN(c3ncccn3)CC1)Cn1c-2c(C2CCCCC2)c2ccc(C(=O)NS(=O)(=O)N(C)C)cc21	0.03 to 1 µM	< 0.02 µM		
COc1ccc2c(c1)CC(C(=O)N1CCN(CCOCCO)CC1)Cn1c-2c(C2CCCCC2)c2ccc(C(=O)NS(=O)(=O)N(C)C)cc21 (centres unmarked)	0.03 to 1 µM	0.02 to 1 µM		
COc1ccc2c(c1)C=C(C(=O)N1CCN(C(=O)C(C)(C)O)CC1)Cn1c-2c(C2CCCCC2)c2ccc(C(=O)NS(=O)(=O)N(C)C)cc21	0.03 to 1 µM	0.02 to 1 µM		
COc1ccc2c(c1)C=C(C(=O)N1CCN(C(=O)C3(O)CC3)CC1)Cn1c-2c(C2CCCCC2)c2ccc(C(=O)NS(=O)(=O)N(C)C)cc21	0.03 to 1 µM	0.02 to 1 µM		
COc1ccc2c(c1)C=C(C(=O)N1CC(C(=O)N(C)C)C1)Cn1c-2c(C2CCCCC2)c2ccc(C(=O)NS(=O)(=O)N(C)C)cc21	0.03 to 1 µM	0.02 to 1 µM		
COc1ccc2c(c1)C=C(C(=O)N1CC(C(=O)N3CCOCC3)C1)Cn1c-2c(C2CCCCC2)c2ccc(C(=O)NS(=O)(=O)N(C)C)cc21	0.03 to 1 µM	0.02 to 1 µM		
COc1ccc2c(c1)CC(C(=O)N1CCN(C(=O)C3(O)CC3)CC1)Cn1c-2c(C2CCCCC2)c2ccc(C(=O)NS(=O)(=O)N(C)C)cc21 (centres unmarked)	0.03 to 1 µM	0.02 to 1 µM		
COc1ccc2c(c1)C=C(C(=O)N[C@@](C)(CO)C(=O)N(C)C)Cn1c-2c(C2CCCCC2)c2ccc(C(=O)NS(=O)(=O)N(C)C)cc21	0.03 to 1 µM	0.02 to 1 µM		
COc1ccc2c(c1)C=C(C(=O)N1C[C@@H](C)O[C@@H](C)C1)Cn1c-2c(C2CCCCC2)c2ccc(C(=O)NS(=O)(=O)N3CCCC3)cc21	0.03 to 1 µM	0.02 to 1 µM		
COc1ccc2c(c1)C=C(C(=O)N1CCOCC1)Cn1c-2c(C2CCCCC2)c2ccc(C(=O)NS(=O)(=O)N3CCC3)cc21	0.03 to 1 µM	0.02 to 1 µM		
COc1ccc2c(c1)C=C(C(=O)N1CCOCC1)Cn1c-2c(C2CCCCC2)c2ccc(C(=O)NS(=O)(=O)N3CCCC3)cc21	0.03 to 1 µM	0.02 to 1 µM		
COc1ccc2c(c1)C=C(C(=O)N1C[C@@H](C)O[C@@H](C)C1)Cn1c-2c(C2CCCCC2)c2ccc(C(=O)NS(=O)(=O)N3CCC3)cc21	0.03 to 1 µM	0.02 to 1 µM		
COc1ccc2c(c1)C=C(C(=O)N1CCOCC1)Cn1c-2c(C2CCCCC2)c2ccc(C(=O)NS(=O)(=O)c3ccc(C)cn3)cc21	0.03 to 1 µM	0.02 to 1 µM		
COc1ccc2c(c1)C=C(C(=O)N1C[C@@H](C)O[C@@H](C)C1)Cn1c-2c(C2CCCCC2)c2ccc(C(=O)NS(=O)(=O)c3ccc(C)cn3)cc21	0.03 to 1 µM	0.02 to 1 µM		
COC[C@H]1CN(C(=O)C2=Cc3cc(OC)ccc3-c3c(C4CCCCC4)c4ccc(C(=O)NS(=O)(=O)N(C)C)cc4n3C2)CCO1	0.03 to 1 µM	0.02 to 1 µM		
COC[C@@H]1CN(C(=O)C2=Cc3cc(OC)ccc3-c3c(C4CCCCC4)c4ccc(C(=O)NS(=O)(=O)N(C)C)cc4n3C2)CCO1	0.03 to 1 µM	0.02 to 1 µM		
CON(C)S(=O)(=O)NC(=O)c1ccc2c(C3CCCCC3)c3n(c2c1)CC(C(=O)N1CCOCC1)=Cc1ccccc1-3 [drawing 100]			0.07 to 1 µM	0.01 to 1 µM
COc1ccc2c(c1)C=C(C(=O)N1CCOCC1)Cn1c-2c(C2CCCCC2)c2ccc(C(=O)NS(=O)(=O)N3CCOCC3)cc21 [drawing 102]			0.07 to 1 µM	0.01 to 1 µM
C[C@@H]1CN(CCNC(=O)C2=Cc3ccccc3-c3c(C4CCCCC4)c4ccc(C(=O)NS(=O)(=O)N(C)C)cc4n3C2)C[C@H](C)O1 [drawing 130]			0.07 to 1 µM	0.01 to 1 µM
